Test results published in patent US10059713B2 (Takeda Pharmaceutical Company Limited, priority 2014, dated 2018).

Target: human GPR43 (Homo sapiens (Human), UniProt O15552)
Test: Ca-Flux functional assay: determination of agonist/positive allosteric modulator (PAM) activity
Format: cell-based
Details: CHO-K1 Gα16 cells stably expressing human GPR43; compound added with EC20 sodium acetate; intracellular Ca2+ by FLIPR; does not distinguish agonist from PAM
In short: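 Agonist or PAM activity read as intracellular Ca2+ rise by FLIPR after adding compound plus EC20 acetate, acetate EC20 set from a prior curve. Cells: CHO-K1 Gα16 with stable human GPR43. EC50 from ten-point half-log curves starting 10 μM.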

Chain of human GPR43 (O15552 whole entry): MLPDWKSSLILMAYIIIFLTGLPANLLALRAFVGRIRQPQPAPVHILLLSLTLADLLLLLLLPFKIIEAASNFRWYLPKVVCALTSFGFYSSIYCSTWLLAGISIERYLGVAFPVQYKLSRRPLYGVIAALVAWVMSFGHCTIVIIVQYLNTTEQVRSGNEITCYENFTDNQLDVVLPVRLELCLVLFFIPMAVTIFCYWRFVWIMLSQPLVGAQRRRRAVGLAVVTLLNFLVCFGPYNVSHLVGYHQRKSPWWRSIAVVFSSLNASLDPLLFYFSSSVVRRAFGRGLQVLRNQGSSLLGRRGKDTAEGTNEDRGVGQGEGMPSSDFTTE

SMILES | EC50 [nM]
COc1ccccc1S(=O)(=O)c1c(N)[nH]c2c(N3CCOC(C)C3)ncnc12 (stereo not shown) [Example 152, 7-(2-methoxybenzenesulfonyl)-4-(2-methylmorpholin-4-yl)-5H-pyrrolo[3,2-d]pyrimidin-6-amine] | 2150
COC1CCN(c2ncnc3c(S(=O)(=O)c4ccccc4)c(N)[nH]c23)CC1 [Example 28, 7-(benzenesulfonyl)-4-(4-methoxypiperidin-1-yl)-5H-pyrrolo[3,2-d]pyrimidin-6-amine] | 647
Nc1[nH]c2c(N3CCC(F)CC3)ncnc2c1S(=O)(=O)c1ccccc1 [Example 46, 7-(benzenesulfonyl)-4-(4-fluoropiperidin-1-yl)-5H-pyrrolo[3,2-d]pyrimidin-6-amine] | 153
CC(C)c1ncnc2c(S(=O)(=O)c3ccccc3)c(N)[nH]c12 [Example 15, 7-(benzenesulfonyl)-4-(propan-2-yl)-5H-pyrrolo[3,2-d]pyrimidin-6-amine] | 1060
C=C(C)c1nc(C)nc2c(S(=O)(=O)c3ccccc3F)c(N)[nH]c12 [Example 224, 7-(2-fluorobenzenesulfonyl)-2-methyl-4-(prop-1-en-2-yl)-5H-pyrrolo[3,2-d]pyrimidin-6-amine] | 85
Nc1[nH]c2c(OC3CCCCC3)ncnc2c1S(=O)(=O)c1ccccc1 [Example 160, 7-(benzenesulfonyl)-4-(cyclohexyloxy)-5H-pyrrolo[3,2-d]pyrimidin-6-amine] | 39
Cc1nc(N2CCOC3(CC3)C2)c2[nH]c(N)c(S(=O)(=O)c3cccc(F)c3)c2n1 [Example 192, 7-(3-fluorobenzenesulfonyl)-2-methyl-4-{4-oxa-7-azaspiro[2.5]octan-7-yl}-5H-pyrrolo[3,2-d]pyrimidin-6-amine] | 31
Cc1nc(N2CCOC(C)C2)c2[nH]c(N)c(S(=O)(=O)c3ccc(F)cc3F)c2n1 (stereo not shown) [Example 262, 7-(2,4-difluorobenzenesulfonyl)-2-methyl-4-(2-methylmorpholin-4-yl)-5H-pyrrolo[3,2-d]pyrimidin-6-amine] | 5
Cc1nc(N2CCC(F)(F)CC2)c2[nH]c(N)c(S(=O)(=O)c3ccccc3)c2n1 [Example 142, 7-(benzenesulfonyl)-4-(4,4-difluoropiperidin-1-yl)-2-methyl-5H-pyrrolo[3,2-d]pyrimidin-6-amine] | 20
CC1CCCCN1c1ncnc2c(S(=O)(=O)c3ccccc3)c(N)[nH]c12 (stereo not shown) [Example 69, 7-(benzenesulfonyl)-4-(2-methylpiperidin-1-yl)-5H-pyrrolo[3,2-d]pyrimidin-6-amine] | 49
COC[C@H]1CCCN1c1ncnc2c(S(=O)(=O)c3ccccc3)c(N)[nH]c12 [Example 118, 7-(benzenesulfonyl)-4-[(2R)-2-(methoxymethyl)pyrrolidin-1-yl]-5H-pyrrolo[3,2-d]pyrimidin-6-amine] | 5180
Cc1nc(OC(C)C2CCCC2)c2[nH]c(N)c(S(=O)(=O)c3ccccc3)c2n1 (stereo not shown) [Example 247, 7-(benzenesulfonyl)-4-(1-cyclopentylethoxy)-2-methyl-5H-pyrrolo[3,2-d]pyrimidin-6-amine] | 16
CC(C)Oc1ccc(S(=O)(=O)c2c(N)[nH]c3c(N4CCOC(C)C4)ncnc23)cc1 (stereo not shown) [Example 126, 4-(2-methylmorpholin-4-yl)-7-[4-(propan-2-yloxy)benzenesulfonyl]-5H-pyrrolo[3,2-d]pyrimidin-6-amine] | 53
Nc1[nH]c2c(Br)cncc2c1S(=O)(=O)c1ccccc1 [Example 77, 3-(benzenesulfonyl)-7-bromo-1H-pyrrolo[3,2-c]pyridin-2-amine] | 628
Cc1nc(N2C[C@@H](C)OC[C@H]2C)c2[nH]c(N)c(S(=O)(=O)c3ccccc3F)c2n1 [Example 232, 4-[(2R,5R)-2,5-dimethylmorpholin-4-yl]-7-(2-fluorobenzenesulfonyl)-2-methyl-5H-pyrrolo[3,2-d]pyrimidin-6-amine] | 3
Cc1nc(N2CCO[C@@H](C(F)(F)F)C2)c2[nH]c(N)c(S(=O)(=O)c3cccc(F)c3F)c2n1 [Example 286, 7-(2,3-difluorobenzenesulfonyl)-2-methyl-4-[(2R)-2-(trifluoromethyl)morpholin-4-yl]-5H-pyrrolo[3,2-d]pyrimidin-6-amine] | 3
Nc1[nH]c2c(C3CCCCC3)ncnc2c1S(=O)(=O)c1ccccc1 [Example 3, 7-(benzenesulfonyl)-4-cyclohexyl-5H-pyrrolo[3,2-d]pyrimidin-6-amine] | 43
Nc1[nH]c2c(C3CCCCC3)ncnc2c1S(=O)(=O)C1CCCCC1 [Example 51, 7-(cyclohexanesulfonyl)-4-cyclohexyl-5H-pyrrolo[3,2-d]pyrimidin-6-amine] | 162
Nc1[nH]c2c(OCc3ccccc3)ncnc2c1S(=O)(=O)c1ccccc1 [Example 168, 7-(benzenesulfonyl)-4-(benzyloxy)-5H-pyrrolo[3,2-d]pyrimidin-6-amine] | 134

Results, then the molecule that gave them:

EC50 [nM] | SMILES
3320 | COC1CCN(c2ncnc3c(S(=O)(=O)c4ccccc4)c(N)[nH]c23)C1 (stereo not shown) [Example 117, 7-(benzenesulfonyl)-4-(3-methoxypyrrolidin-1-yl)-5H-pyrrolo[3,2-d]pyrimidin-6-amine]
36 | CCC1(CC)CN(c2ncnc3c(S(=O)(=O)c4ccccc4)c(N)[nH]c23)CCO1 [Example 103, 7-(benzenesulfonyl)-4-(2,2-diethylmorpholin-4-yl)-5H-pyrrolo[3,2-d]pyrimidin-6-amine]
53 | Cc1nc(OC2CCCOC2(C)C)c2[nH]c(N)c(S(=O)(=O)c3ccccc3F)c2n1 (stereo not shown) [Example 296, 4-[(2,2-dimethyloxan-3-yl)oxy]-7-(2-fluorobenzenesulfonyl)-2-methyl-5H-pyrrolo[3,2-d]pyrimidin-6-amine]
9 | CSc1nc(N2CCOC(C)C2)c2[nH]c(N)c(S(=O)(=O)c3ccccc3F)c2n1 (stereo not shown) [Example 269, 7-(2-fluorobenzenesulfonyl)-4-(2-methylmorpholin-4-yl)-2-(methylsulfanyl)-5H-pyrrolo[3,2-d]pyrimidin-6-amine]
2640 | CC1CN(c2ncnc3c(S(=O)(=O)C4CCN(C(=O)OCc5ccccc5)CC4)c(N)[nH]c23)CCO1 (stereo not shown) [Example 206, benzyl 4-{[6-amino-4-(2-methylmorpholin-4-yl)-5H-pyrrolo[3,2-d]pyrimidin-7-yl]sulfonyl}piperidine-1-carboxylate]
1510 | Nc1[nH]c2c(N3CC4CCC(C3)O4)ncnc2c1S(=O)(=O)c1ccccc1 [Example 132, 7-(benzenesulfonyl)-4-{8-oxa-3-azabicyclo[3.2.1]octan-3-yl}-5H-pyrrolo[3,2-d]pyrimidin-6-amine]
14 | Cc1nc(N2CCOC(C(F)(F)F)C2)c2[nH]c(N)c(S(=O)(=O)c3ccccc3)c2n1 (stereo not shown) [Example 225, 7-(benzenesulfonyl)-2-methyl-4-[2-(trifluoromethyl)morpholin-4-yl]-5H-pyrrolo[3,2-d]pyrimidin-6-amine]
25 | Cc1nc(N2CCOC3(CCCC3)C2)c2[nH]c(N)c(S(=O)(=O)c3cccc(F)c3)c2n1 [Example 199, 7-(3-fluorobenzenesulfonyl)-2-methyl-4-{6-oxa-9-azaspiro[4.5]decan-9-yl}-5H-pyrrolo[3,2-d]pyrimidin-6-amine]
7 | Cc1nc(N2C[C@H](C)OC[C@@H]2C)c2[nH]c(N)c(S(=O)(=O)c3ccccc3F)c2n1 [Example 223, 4-[(2S,5S)-2,5-dimethylmorpholin-4-yl]-7-(2-fluorobenzenesulfonyl)-2-methyl-5H-pyrrolo[3,2-d]pyrimidin-6-amine]
17 | CCC(CC)Oc1ncnc2c(S(=O)(=O)c3ccccc3)c(N)[nH]c12 [Example 213, 7-(benzenesulfonyl)-4-(pentan-3-yloxy)-5H-pyrrolo[3,2-d]pyrimidin-6-amine]
2 | Cc1nc(N2CCO[C@H](C(F)(F)F)C2)c2[nH]c(N)c(S(=O)(=O)c3ccc(Cl)cc3F)c2n1 [Example 284, 7-(4-chloro-2-fluorobenzenesulfonyl)-2-methyl-4-[(2S)-2-(trifluoromethyl)morpholin-4-yl]-5H-pyrrolo[3,2-d]pyrimidin-6-amine]
720 | Nc1[nH]c2c(N3CCCC3)ncnc2c1S(=O)(=O)c1ccccc1 [Example 31, 7-(benzenesulfonyl)-4-(pyrrolidin-1-yl)-5H-pyrrolo[3,2-d]pyrimidin-6-amine]
8 | Cc1nc(N2CCOC3(CCC3)C2)c2[nH]c(N)c(S(=O)(=O)c3ccccc3F)c2n1 [Example 237, 7-(2-fluorobenzenesulfonyl)-2-methyl-4-{5-oxa-8-azaspiro[3.5]nonan-8-yl}-5H-pyrrolo[3,2-d]pyrimidin-6-amine]
1640 | Nc1[nH]c2c(OC3CCOCC3)ncnc2c1S(=O)(=O)c1ccccc1 [Example 166, 7-(benzenesulfonyl)-4-(oxan-4-yloxy)-5H-pyrrolo[3,2-d]pyrimidin-6-amine]
32 | Cc1nc(N2CCCC(C)C2)c2[nH]c(N)c(S(=O)(=O)c3ccccc3)c2n1 (stereo not shown) [Example 110, 7-(benzenesulfonyl)-2-methyl-4-(3-methylpiperidin-1-yl)-5H-pyrrolo[3,2-d]pyrimidin-6-amine]
5500 | O=S(=O)(c1ccccc1)c1c(NC2CCC(F)(F)CC2)[nH]c2ncccc12 [Example 1, 3-(benzenesulfonyl)-N-(4,4-difluorocyclohexyl)-1H-pyrrolo[2,3-b]pyridin-2-amine]
11 | CCC(Oc1nc(C)nc2c(S(=O)(=O)c3ccccc3)c(N)[nH]c12)C1CC1 (stereo not shown) [Example 243, 7-(benzenesulfonyl)-4-(1-cyclopropylpropoxy)-2-methyl-5H-pyrrolo[3,2-d]pyrimidin-6-amine]
57 | Cc1nc(OCC2CC2(C)C)c2[nH]c(N)c(S(=O)(=O)c3ccccc3)c2n1 (stereo not shown) [Example 245, 7-(benzenesulfonyl)-4-[(2,2-dimethylcyclopropyl)methoxy]-2-methyl-5H-pyrrolo[3,2-d]pyrimidin-6-amine]
